Assay [1] deals with T47D (PI3Kα-H1047R) cell line. Nature of the assay: HTRF phospho-AKT(S473) cell assay in T47D cells. The format is cell-based, human. To be noted: Homo sapiens; HTRF phospho-AKT(S473), T47D (PI3Kα-H1047R) cells, 2 hours compound incubation. The procedure, abridged: (§1)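 T47D: RPMI + 10% FBS + 0.2 units/mL insulin, top 5 μM. SKBR3: McCoy's 5A + 10% FBS, top 10 μM, 70 ng/ml PDGF-BB last 15 min. Both: 12-pt 1:3, 2 h, 37° C, max 0.5% DMSO; HTRF pAKT(S473); IC50.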

In assay [2] the test system is SKBR3 (PI3Kα-Wild Type) cell line. Nature of the assay: HTRF phospho-AKT(S473) cell assay in SKBR3 cells. The format is cell-based, human. To be noted: Homo sapiens, SK-BR-3; HTRF phospho-AKT(S473), SKBR3 (PI3Kα-Wild Type) cells, 2 hours compound incubation, PDGF-BB stimulated. The method, boiled down:
as §1
In general terms: In TR-FRET formats the signal depends on donor and acceptor labels being close together.

Bounds are passed on as bounds.

By IC50 is commonly meant the midpoint of a concentration-inhibition curve. As to `Cc1cc([C@@H](C)Nc2ccc(Cl)nc2C(=O)NS(C)(=O)=O)c2nc(N3C[C@@H]4C(c5ccnc(C)c5F)[C@@H]4C3)n(C)c(=O)c2c1` (stereo partly drawn) [Compound 763, 6-chloro-3-(((1R)-1-(2-((1R,5S)-6-(3-fluoro-2-methylpyridin-4-yl)-3-azabicyclo[3.1.0]hexan-3-yl)-3,6-dimethyl-4-oxo-3,4-dihydroquinazolin-8-yl)ethyl)amino)-N-(methylsulfonyl) picolinamide], the figures for the half-maximal inhibitory concentration (IC50) in assay [1] and in assay [2] were 250 to 500 nM and 1000 to 5000 nM, respectively.
For `Cc1cc([C@@H](C)Nc2ccc(Cl)nc2C(=O)NS(C)(=O)=O)c2nc(N3CCn4nccc4C3)n(C)c(=O)c2c1` [Compound 765, (R)-6-chloro-3-((1-(2-(6,7-dihydropyrazolo[1,5-a]pyrazin-5(4H)-yl)-3,6-dimethyl-4-oxo-3,4-dihydroquinazolin-8-yl)ethyl)amino)-N-(methylsulfonyl) picolinamide] the same measures were 250 to 500 nM and 1000 to 5000 nM.
In the case of `Cc1cc([C@@H](C)Nc2ccc(Cl)nc2C(=O)NS(C)(=O)=O)c2nc(N3C[C@H]4C[C@@H]3C[C@H]4c3nn(C)cc3F)n(C)c(=O)c2c1` [Compound 766, 6-chloro-3-(((R)-1-(2-((1R,4S,5R)-5-(4-fluoro-1-methyl-1H-pyrazol-3-yl)-2-azabicyclo[2.2.1]heptan-2-yl)-3,6-dimethyl-4-oxo-3,4-dihydroquinazolin-8-yl)ethyl)amino)-N-(methylsulfonyl) picolinamide], the IC50 in assay [1] was 250 to 500 nM; in assay [2], at least 5000 nM.
On to `Cc1cc([C@@H](C)Nc2ccc(Cl)nc2C(=O)NS(C)(=O)=O)c2nc(N3C[C@H]4C[C@@H]3CN4c3ncc(C#N)cc3F)n(C)c(=O)c2c1` [Compound 767, 6-chloro-3-(((R)-1-(2-((1R,4R)-5-(5-cyano-3-fluoropyridin-2-yl)-2,5-diazabicyclo [2.2.1]heptan-2-yl)-3,6-dimethyl-4-oxo-3,4-dihydroquinazolin-8-yl)ethyl)amino)-N-(methylsulfonyl) picolinamide], for which the IC50 in assay [1] was 250 to 500 nM; in assay [2], at least 5000 nM.
For `Cc1cc([C@@H](C)Nc2ccc(Cl)nc2C(=O)NS(C)(=O)=O)c2nc(N3CCN(c4nc(C(F)F)ncc4F)CC3)n(C)c(=O)c2c1` [Compound 772, (R)-6-chloro-3-((1-(2-(4-(2-(difluoromethyl)-5-fluoropyrimidin-4-yl)piperazin-1-yl)-3,6-dimethyl-4-oxo-3,4-dihydroquinazolin-8-yl)ethyl)amino)-N-(methylsulfonyl) picolinamide], in that order: under 250 nM and at least 5000 nM.
For `Cc1cc([C@@H](C)Nc2ccc(Cl)nc2C(=O)NS(C)(=O)=O)c2nc(-c3ccc(C4(C#N)CC4)cc3)n(C)c(=O)c2c1` [Compound 773, (R)-6-chloro-3-((1-(2-(4-(1-cyanocyclopropyl)phenyl)-3,6-dimethyl-4-oxo-3,4-dihydroquinazolin-8-yl)ethyl)amino)-N-(methylsulfonyl) picolinamide], in that order: under 250 nM and 1000 to 5000 nM.
For `Cc1cc([C@@H](C)Nc2ccc(Cl)nc2C(=O)NS(C)(=O)=O)c2nc(-c3ccc4c(cnn4C)c3)n(C)c(=O)c2c1` [Compound 774, (R)-6-chloro-3-((1-(3,6-dimethyl-2-(1-methyl-1H-indazol-5-yl)-4-oxo-3,4-dihydroquinazolin-8-yl)ethyl)amino)-N-(methylsulfonyl) picolinamide] the same measures were under 250 nM and 500 to 1000 nM.
Turning to `Cc1cc([C@@H](C)Nc2ccc(Cl)nc2C(=O)NS(C)(=O)=O)c2nc(-c3ccc4nn(C)cc4c3)n(C)c(=O)c2c1` [Compound 775, (R)-6-chloro-3-((1-(3,6-dimethyl-2-(2-methyl-2H-indazol-5-yl)-4-oxo-3,4-dihydroquinazolin-8-yl)ethyl)amino)-N-(methylsulfonyl) picolinamide], the 50% inhibitory concentration (IC50) was under 250 nM in assay [1] and 1000 to 5000 nM in assay [2].
On to `Cc1cc([C@@H](C)Nc2ccc(Cl)nc2C(=O)NS(C)(=O)=O)c2nc(-c3ccc4c(c3)C(=O)N(C)C4)n(C)c(=O)c2c1` [Compound 776, (R)-6-chloro-3-((1-(3,6-dimethyl-2-(2-methyl-3-oxoisoindolin-5-yl)-4-oxo-3,4-dihydroquinazolin-8-yl)ethyl)amino)-N-(methylsulfonyl) picolinamide], for which the 50% inhibitory concentration (IC50) is 250 to 500 nM in assay [1] and 1000 to 5000 nM in assay [2].
For `Cc1cc([C@@H](C)Nc2ccc(Cl)nc2C(=O)NS(C)(=O)=O)c2nc(-c3cccc(Cl)c3Cl)n(C)c(=O)c2c1` [Compound 777, (R)-6-chloro-3-((1-(2-(2,3-dichlorophenyl)-3,6-dimethyl-4-oxo-3,4-dihydroquinazolin-8-yl)ethyl)amino)-N-(methylsulfonyl) picolinamide], the IC50 is 500 to 1000 nM in assay [1] and at least 5000 nM in assay [2].
For `CC(=O)N1CCN(c2ccc(-c3nc4c([C@@H](C)Nc5ccc(Cl)nc5C(=O)NS(C)(=O)=O)cc(C)cc4c(=O)n3C)cc2F)CC1` [Compound 778, (R)-3-((1-(2-(4-(4-acetylpiperazin-1-yl)-3-fluorophenyl)-3,6-dimethyl-4-oxo-3,4-dihydroquinazolin-8-yl)ethyl)amino)-6-chloro-N-(methylsulfonyl) picolinamide] the same measures were under 250 nM and 1000 to 5000 nM.
For `Cc1cc([C@@H](C)Nc2ccc(Cl)nc2C(=O)NS(C)(=O)=O)c2nc(-c3ccc4c(c3)C(=O)N(C)CC4)n(C)c(=O)c2c1` [Compound 779, (R)-6-chloro-3-((1-(3,6-dimethyl-2-(2-methyl-1-oxo-1,2,3,4-tetrahydroisoquinolin-7-yl)-4-oxo-3,4-dihydroquinazolin-8-yl)ethyl)amino)-N-(methylsulfonyl) picolinamide] the same measures were under 250 nM and 1000 to 5000 nM.
For `CC(=O)N1CCC(c2ccc(-c3nc4c([C@@H](C)Nc5ccc(Cl)nc5C(=O)NS(C)(=O)=O)cc(C)cc4c(=O)n3C)c(F)c2)CC1` [Compound 780, (R)-3-((1-(2-(4-(1-acetylpiperidin-4-yl)-2-fluorophenyl)-3,6-dimethyl-4-oxo-3,4-dihydroquinazolin-8-yl)ethyl)amino)-6-chloro-N-(methylsulfonyl) picolinamide], in that order: under 250 nM and 1000 to 5000 nM.
Regarding `Cc1cc([C@@H](C)Nc2ccc(Cl)nc2C(=O)NS(C)(=O)=O)c2nc(-c3ccc4nn(C)nc4c3)n(C)c(=O)c2c1` [Compound 781, (R)-6-chloro-3-((1-(3,6-dimethyl-2-(2-methyl-2H-benzo[d][1,2,3]triazol-5-yl)-4-oxo-3,4-dihydroquinazolin-8-yl)ethyl)amino)-N-(methylsulfonyl) picolinamide], the IC50 in assay [1] was under 250 nM; in assay [2] it was 1000 to 5000 nM.
Take `CC(=O)N1CCC(c2ccc(-c3nc4c([C@@H](C)Nc5ccc(Cl)nc5C(=O)NS(C)(=O)=O)cc(C)cc4c(=O)n3C)cc2)CC1` [Compound 782, (R)-3-((1-(2-(4-(1-acetylpiperidin-4-yl)phenyl)-3,6-dimethyl-4-oxo-3,4-dihydroquinazolin-8-yl)ethyl)amino)-6-chloro-N-(methylsulfonyl) picolinamide]: the values for the IC50 in assay [1] and in assay [2] were under 250 nM and 1000 to 5000 nM, respectively.

Source of the values: patent US12281122B1, “PI3K inhibitors” (Cogent Biosciences, Inc., priority 2023, dated 2025).
